Experimental data: patent US12344597B2, “Alkoxy-substituted pyridinyl derivatives as LPA1 receptor antagonists and their use in the treatment of fibrosis” (IDORSIA PHARMACEUTICALS LTD, priority 2018, dated 2025)

target: human LPA1 receptor (Homo sapiens (Human), UniProt Q92633); test: Beta-arrestin recruitment assay to determine IC50 values for human LPAR1; assay type: cell-based; settings: antagonist mode, Tango EDG2-bla U2OS cells, LPA 18:1 500 nM final
Outline: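 Antagonist IC50 = concentration giving 50% inhibition of maximal LPA response. Read-out is beta-lactamase reporter activity after arrestin-protease recruitment in U2OS cells bearing LPA1-TEV-Gal4-VP16 construct; cells pre-incubated 20 h, 37 °C, 5% CO2.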

Sequence of human LPA1 receptor (Q92633 whole entry, the tested form may be a part): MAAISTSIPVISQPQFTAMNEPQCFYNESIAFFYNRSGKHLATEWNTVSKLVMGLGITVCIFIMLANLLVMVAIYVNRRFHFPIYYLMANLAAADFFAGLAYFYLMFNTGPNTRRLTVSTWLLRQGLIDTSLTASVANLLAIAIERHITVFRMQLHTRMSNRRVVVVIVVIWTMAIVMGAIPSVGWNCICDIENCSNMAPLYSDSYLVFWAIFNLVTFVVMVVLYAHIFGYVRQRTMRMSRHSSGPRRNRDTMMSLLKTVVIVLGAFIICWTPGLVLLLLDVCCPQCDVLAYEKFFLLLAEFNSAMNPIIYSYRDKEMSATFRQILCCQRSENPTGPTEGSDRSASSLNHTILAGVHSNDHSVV

How did the IC50 turn out when Cc1ccc(NC(=O)C2(c3ccccc3C(C)C)CN(c3ccc(C(=O)O)nn3)C2)c(OC(F)F)n1 [Ex 18-7, 6-(3-((2-(difluoromethoxy)-6-methylpyridin-3-yl)carbamoyl)-3-(2-isopropylphenyl)azetidin-1-yl)pyridazine-3-carboxylic acid] was run?
The IC50 was 12 nM.

Which IC50 does the source give for COC(=O)C1(CCCN2CC(C(=O)Nc3ccc(C)nc3OC(F)F)(c3ccccc3C(C)C)C2)CC1 [Ex 11-70, methyl 1-(3-(3-((2-(difluoromethoxy)-6-methylpyridin-3-yl)carbamoyl)-3-(2-isopropylphenyl)azetidin-1-yl)propyl)cyclopropane-1-carboxylate] here?
Its IC50 is 69 nM.

With Cc1ccc(NC(=O)C2(c3ccccc3C(C)C)CN(Cc3nc(CC(=O)O)co3)C2)c(OC(F)F)n1 [Ex 11-59, 2-(2-((3-((2-(difluoromethoxy)-6-methylpyridin-3-yl)carbamoyl)-3-(2-isopropylphenyl)azetidin-1-yl)methyl)oxazol-4-yl)acetic acid] as the molecule, how does the IC50 read?
The IC50 was 38 nM.

For CCOC(=O)C[C@@H](CC(=O)N1CC(C(=O)Nc2ccc(C)nc2OC(F)F)(c2ccccc2C(C)C)C1)OC(C)=O [Ex 12-104, ethyl (R)-3-acetoxy-5-(3-((2-(difluoromethoxy)-6-methylpyridin-3-yl)carbamoyl)-3-(2-isopropylphenyl)azetidin-1-yl)-5-oxopentanoate], which IC50 is on record?
The IC50 was 41 nM.

How did the IC50 turn out when CCOC(=O)c1cc(CN2CC(C(=O)Nc3ccc(C)nc3OC(F)F)(c3ccccc3C(C)C)C2)on1 [Ex 11-34, ethyl 5-((3-((2-(difluoromethoxy)-6-methylpyridin-3-yl)carbamoyl)-3-(2-isopropylphenyl)azetidin-1-yl)methyl)isoxazole-3-carboxylate] was run?
Its IC50 is 79 nM.

Cc1ccc(NC(=O)C2(c3ccccc3C(C)C)CN(CCC3(O)CC3)C2)c(OC(F)F)n1 [Ex 11-10, N-(2-(difluoromethoxy)-6-methylpyridin-3-yl)-1-(2-(1-hydroxycyclopropyl)ethyl)-3-(2-isopropylphenyl)azetidine-3-carboxamide] was tested. Which IC50 did it give?
The IC50 was 12 nM.

For Cc1ccc(NC(=O)C2(c3ccccc3C(C)C)CN(c3cccc(C(=O)O)n3)C2)c(OC(F)F)n1 [Ex 18-3, 6-(3-((2-(difluoromethoxy)-6-methylpyridin-3-yl)carbamoyl)-3-(2-isopropylphenyl)azetidin-1-yl)picolinic acid], which IC50 is on record?
The IC50 was 7 nM.

Cc1ccc(NC(=O)C2(c3ccccc3C(C)C)CN(C(=O)CCOCC(=O)OCc3ccccc3)C2)c(OC(F)F)n1 [Ex 12-109, benzyl 2-(3-(3-((2-(difluoromethoxy)-6-methylpyridin-3-yl)carbamoyl)-3-(2-isopropylphenyl)azetidin-1-yl)-3-oxopropoxy)acetate] was tested. Which IC50 did it give?
Its IC50 is 20 nM.

With COC(=O)CCCN1CC(C(=O)Nc2ccc(C)nc2OC(F)F)(c2ccccc2C(C)C)C1 [Ex 11-28, methyl 4-(3-((2-(difluoromethoxy)-6-methylpyridin-3-yl)carbamoyl)-3-(2-isopropylphenyl)azetidin-1-yl)butanoate] as the molecule, how does the IC50 read?
Its IC50 is 12 nM.

“5-(3-((2-(difluoromethoxy)-6-methylpyridin-3-yl)carbamoyl)-3-(2-isopropylphenyl)azetidin-1-yl)-2-methylpentan-2-yl acetate [Ex 11-65]” was tested. Which IC50 did it give?
The IC50 was 315 nM.

How did the IC50 turn out when Cc1ccc(NC(=O)C2(c3ncccc3C(C)C)CN(C(=O)CCC(=O)O)C2)c(OC(F)F)n1 [Ex 61, 4-(3-((2-(difluoromethoxy)-6-methylpyridin-3-yl)carbamoyl)-3-(3-isopropylpyridin-2-yl)azetidin-1-yl)-4-oxobutanoic acid] was run?
The IC50 was 70 nM.

For Cc1ccc(NC(=O)C2(c3ccccc3C(C)C)CN(CCC3(C(=O)O)CCOC3)C2)c(OC(F)F)n1 (stereo not shown) [Ex 11-76, 3-(2-(3-((2-(difluoromethoxy)-6-methylpyridin-3-yl)carbamoyl)-3-(2-isopropylphenyl)azetidin-1-yl)ethyl)tetrahydrofuran-3-carboxylic acid], which IC50 is on record?
Its IC50 is 18 nM.

With CC(C)c1ccccc1C1(C(=O)Nc2ncc(Br)cc2OC(F)F)CNC1 [Ex 73, N-(5-bromo-3-(difluoromethoxy)pyridin-2-yl)-3-(2-isopropylphenyl)azetidine-3-carboxamide] as the molecule, how does the IC50 read?
The IC50 was 10 nM.

Which IC50 does the source give for Cc1ccc(NC(=O)C2(c3ccccc3C(C)C)CN(CCOCC(=O)O)C2)c(OC(F)F)n1 [Ex 11-75, 2-(2-(3-((2-(difluoromethoxy)-6-methylpyridin-3-yl)carbamoyl)-3-(2-isopropylphenyl)azetidin-1-yl)ethoxy)acetic acid] here?
Its IC50 is 29 nM.

How did the IC50 turn out when CC(C)c1ccccc1C1(C(=O)Nc2cccnc2OC(F)F)CN(C(=O)CC(C)(C)C(=O)O)C1 [Ex 12-84, 4-(3-((2-(difluoromethoxy)pyridin-3-yl)carbamoyl)-3-(2-isopropylphenyl)azetidin-1-yl)-2,2-dimethyl-4-oxobutanoic acid] was run?
The IC50 was 51 nM.

For Cc1ccc(NC(=O)C2(c3ccccc3C(C)C)CN(C(=O)N3CCNCC3)C2)c(OC(F)F)n1 [Ex 17-25, N-(2-(difluoromethoxy)-6-methylpyridin-3-yl)-3-(2-isopropylphenyl)-1-(piperazine-1-carbonyl)azetidine-3-carboxamide], which IC50 is on record?
Its IC50 is 270 nM.

How did the IC50 turn out when COC(=O)C1(CNC(=O)N2CC(C(=O)Nc3ccc(C)nc3OC(F)F)(c3ccccc3C(C)C)C2)CC1 [Ex 17-14, methyl 1-((3-((2-(difluoromethoxy)-6-methylpyridin-3-yl)carbamoyl)-3-(2-isopropylphenyl)azetidine-1-carboxamido)methyl)cyclopropane-1-carboxylate] was run?
Its IC50 is 7 nM.

For Cc1ccc(NC(=O)C2(c3ccccc3C(C)C)CN(S(=O)(=O)CCCS(=O)(=O)O)C2)c(OC(F)F)n1 [Ex 13-30, 3-((3-((2-(difluoromethoxy)-6-methylpyridin-3-yl)carbamoyl)-3-(2-isopropylphenyl)azetidin-1-yl)sulfonyl)propane-1-sulfonic acid], which IC50 is on record?
The IC50 was 49 nM.

For Cc1cnc(NC(=O)C2(c3ccccc3C(C)C)CN(S(=O)(=O)CCC(=O)O)C2)c(OC(F)F)c1 [Ex 80-2, 3-((3-((3-(difluoromethoxy)-5-methylpyridin-2-yl)carbamoyl)-3-(2-isopropylphenyl)azetidin-1-yl)sulfonyl)propanoic acid], which IC50 is on record?
Its IC50 is 110 nM.

With CCOC(=O)/C=C/C(=O)N1CC(C(=O)Nc2ccc(C)nc2OC(F)F)(c2ccccc2C(C)C)C1 [Ex 12-74, ethyl (E)-4-(3-((2-(difluoromethoxy)-6-methylpyridin-3-yl)carbamoyl)-3-(2-isopropylphenyl)azetidin-1-yl)-4-oxobut-2-enoate] as the molecule, how does the IC50 read?
Its IC50 is 97 nM.

Which IC50 does the source give for CC(C)c1ccccc1C1(C(=O)Nc2ncc(Br)cc2OC(F)F)CN(C(=O)NC2CC2)C1 [Ex 82-2, N3-(5-bromo-3-(difluoromethoxy)pyridin-2-yl)-N1-cyclopropyl-3-(2-isopropylphenyl)azetidine-1,3-dicarboxamide] here?
Its IC50 is 3 nM.

Cc1ccc(NC(=O)C2(c3ccccc3C(C)C)CN(C(=O)CNCC(C)(C)C(=O)O)C2)c(OC(F)F)n1 [Ex 45, 3-((2-(3-((2-(difluoromethoxy)-6-methylpyridin-3-yl)carbamoyl)-3-(2-isopropylphenyl)azetidin-1-yl)-2-oxoethyl)amino)-2,2-dimethylpropanoic acid] was tested. Which IC50 did it give?
Its IC50 is 63 nM.

Which IC50 does the source give for Cc1ccc(NC(=O)C2(c3ccccc3C(C)C)CCN(C(=O)CCC(=O)C(F)(F)F)CC2)c(OC(F)F)n1 [Ex 12-12, N-(2-(difluoromethoxy)-6-methylpyridin-3-yl)-4-(2-isopropylphenyl)-1-(5,5,5-trifluoro-4-oxopentanoyl)piperidine-4-carboxamide] here?
The IC50 was 7 nM.

Cc1ccc(NC(=O)C2(c3ccccc3C(C)C)CCN(C(=O)NCCO)CC2)c(OC(F)F)n1 [Ex 17-22, N4-(2-(difluoromethoxy)-6-methylpyridin-3-yl)-N1-(2-hydroxyethyl)-4-(2-isopropylphenyl)piperidine-1,4-dicarboxamide] was tested. Which IC50 did it give?
The IC50 was 9 nM.

Cc1ccc(NC(=O)C2(c3ccccc3C(C)C)CN(C(=O)C[C@H](O)C(=O)O)C2)c(OC(F)F)n1 [Ex 12-34, (S)-4-(3-((2-(difluoromethoxy)-6-methylpyridin-3-yl)carbamoyl)-3-(2-isopropylphenyl)azetidin-1-yl)-2-hydroxy-4-oxobutanoic acid] was tested. Which IC50 did it give?
Its IC50 is 33 nM.

For Cc1ccc(NC(=O)C2(c3ccccc3C(C)C)CN(C[C@@H](O)CNC(=O)CO)C2)c(OC(F)F)n1 [Ex 11-86, (S)-N-(2-(difluoromethoxy)-6-methylpyridin-3-yl)-1-(2-hydroxy-3-(2-hydroxyacetamido)propyl)-3-(2-isopropylphenyl)azetidine-3-carboxamide], which IC50 is on record?
Its IC50 is 10 nM.

Cc1ccc(NC(=O)C2(c3ccccc3C(C)C)CCN(S(=O)(=O)CC(=O)O)CC2)c(OC(F)F)n1 [Ex 13-3, 2-((4-((2-(difluoromethoxy)-6-methylpyridin-3-yl)carbamoyl)-4-(2-isopropylphenyl)piperidin-1-yl)sulfonyl)acetic acid] was tested. Which IC50 did it give?
Its IC50 is 14 nM.

For COC(=O)CS(=O)(=O)N1CCC(C(=O)Nc2ccc(C)nc2OC(F)F)(c2ccccc2C(C)C)CC1 [Ex 13-2, methyl 2-((4-((2-(difluoromethoxy)-6-methylpyridin-3-yl)carbamoyl)-4-(2-isopropylphenyl)piperidin-1-yl)sulfonyl)acetate], which IC50 is on record?
The IC50 was 7 nM.

With COc1nc(Cl)ccc1NC(=O)C1(c2ccccc2C(C)C)CN(C(=O)CCC(=O)O)C1 [Ex 12-70, 4-(3-((6-chloro-2-methoxypyridin-3-yl)carbamoyl)-3-(2-isopropylphenyl)azetidin-1-yl)-4-oxobutanoic acid] as the molecule, how does the IC50 read?
The IC50 was 60 nM.

CC(C)c1ccccc1C1(C(=O)Nc2ncc(Cl)cc2OC(F)F)CN(C(=O)CC(C)(C)C(=O)O)C1 [Ex 79-3, 4-(3-((5-chloro-3-(difluoromethoxy)pyridin-2-yl)carbamoyl)-3-(2-isopropylphenyl)azetidin-1-yl)-2,2-dimethyl-4-oxobutanoic acid] was tested. Which IC50 did it give?
The IC50 was 17 nM.

Which IC50 does the source give for COC(=O)C1(COC(=O)N2CC(C(=O)Nc3ccc(C)nc3OC(F)F)(c3ccccc3C(C)C)C2)COC1 [Ex 14-13, (3-(methoxycarbonyl)oxetan-3-yl)methyl 3-((2-(difluoromethoxy)-6-methylpyridin-3-yl)carbamoyl)-3-(2-isopropylphenyl)azetidine-1-carboxylate] here?
The IC50 was 29 nM.
